The values below come from patent publication US20070099854A1, “Use of pentadienoic acid derivatives for the treatment of hyperuricemia” (priority 2003, published 2007).

In data set [1] the test system is plasma uric acid concentration. The data set is described as follows: Hypouricemic effect of compound A in healthy male volunteers, single oral administration. The class given is in vivo, human (healthy male volunteers). Conditions: at 24 hours. As to the method: Hypouricemic effect of compound A in healthy male volunteers
Forty-eight healthy male volunteers received orally either EMD or a placebo as a single administration in the morning. Six doses were administered 50 mg, 100 mg, 200 mg, 400 mg, 800 mg and 1200 mg once daily. In each group of dose, 6 subjects received compound A and 2 subjects received a placebo. Plasma uric acid concentrations were assessed in all dose groups.
The drop of plasma uric acid concentration was around 45% for the lowest tested dose (50 mg) and the maximum effect was observed from the 800 mg dose (80%).
FIG. 1: Mean plasma uric acid concentration in each group of dose before and 24 hours after drug intake (single dose) in subjects receiving compound A.

As a reminder, the melting point is the temperature, or range, at which the solid turns liquid. On to `CC(/C=C/C1=Cc2ccccc2OC1(C)C)=C\C(=O)O` [Example 4b], for which the melting point was in the range of 164 to 166 °C.

`CC(/C=C/C1=C(c2ccccc2)c2ccccc2OC1)=C\C(=O)O` [Example 7b] had a melting point of 258 to 260 °C.

The molecule `CC(=C/C(=O)O)/C=C/C1=Cc2ccccc2OC1` [Example 12b] displayed a melting point of 224 to 226 °C.

Turning to `COc1ccc2c(c1)C(/C=C/C(C)=C/C(=O)O)=CC(C)(C)CO2` [compound A, (2E,4E)-5-(3,3-dimethyl-7-methoxy-2,3-dihydrobenzoxepin-5-yl)-3-methylpenta-2,4-dienoic acid], the “drop of plasma uric acid concentration” value in data set [1] (50 mg (lowest tested dose)) is “around 45%”. Besides, the “change in plasma uric acid concentration” value in data set [1] (all dose groups 50-1200 mg) is on record as “dose dependant decrease”. The “drop of plasma uric acid concentration (maximum effect)” value in data set [1] (from the 800 mg dose) was 80%.

`CC(=C/C(=O)O)/C=C/C1=Cc2ccccc2OC1(C)C` [Example 5b]: the melting point came out at 176 °C.

With `CC(/C=C/C1=Cc2ccccc2OC1)=C\C(=O)O` [Example 3b], the melting point is 226 to 228 °C.

In the case of `CC1=C(/C=C/C(C)=C/C(=O)O)COc2ccccc21` [Example 11b], the melting point lay in the range of 216 to 218 °C.

`CCOC(=O)/C=C(C)/C=C/C1=Cc2ccccc2OC1` [Example 3a] displayed a melting point of 110 to 112 °C.

As for `CC(/C=C/C1=Cc2ccccc2OC1c1ccccc1)=C\C(=O)O` (centres unmarked) [Example 14b], the melting point was 200 to 202 °C.
